The values that follow come from US11723362B2, “Broad-spectrum synergistic antimicrobial compositions” (The United States of America, as represented by the …, priority 2019, dated 2023).

For one series, the system named is P. aeruginosa. Nature of the series: Minimum inhibitory concentration (MIC) in Mueller-Hinton broth, pH 7.4. The format is cell-based, Pseudomonas aeruginosa. Also noted: Minimum inhibitory concentration: unit not given here. As to conditions: for Minimum inhibitory concentration: Table 2, ATCC 9027. The procedure: (§1) This example illustrates the preparation of testing parameters for antimicrobial activity of components of the inventive composition and related compositions for comparison. […] Microbes were grown on Mueller-Hinton agar (MHA, Sigma-Aldrich, St. Louis, Mo.) for 7 days until heavy sporulation was present. Spores from two agar plates were captured in sterile phosphate-buffered saline (PBS) using a sterile swab. Spores were enumerated by serial dilution in Dey-Engley neutralizing broth (DEB; Sigma-Aldrich) and spread plating on MHA. A typical spore stock was determined to contain ˜2×10^7 spores/mL. Bacteria were grown in MH broth for 24 h at 37° C., enumerated by plating, and diluted to the desired concentration as indicated.
(§2) To assess the antimicrobial activity of hydroxamic acids and derivatives, the inhibitory properties of commercially available hydroxylamines and hydroxamic acids were compared to their alcohol and carboxylic acid analogues diluted in Mueller-Hinton broth at pH 7.4 (Table 1).
Guanylhydrazones 7 and 8, which represent a class of broad-spectrum antimicrobials, alone and in combination with hydroxamic acids were evaluated.

Series [1] deals with Aspergillus brasiliensis ATCC 16404. Kind of series: Fungicidal activity in ionic surfactant hand wash / foamy hand soap base formula (HW). The format is cell-based. As to conditions: pH 7.0; for Log reduction Week 1 / Log reduction Week 2: 1 × 10^6 CFU/mL, 25° C. The protocol: as §1
All test formulas were adjusted to the desired pH using citric acid and/or NaOH. […] All tubes were kept at room temperature (˜21-22° C.) for 3 weeks. About 100 μL of each inoculated foamy hand soap mixture was diluted 1:10 in DEB and 100 μL of this dilution was spread plated on MHA at several time points (e.g. 3 d, 7 d, 13 d, 18 d, and 20 d). Plates were incubated at room temperature for 3-5 days for mold (1-2 days for bacteria) and colonies enumerated.
The preservative activity of a hydroxamic acid/guanylhydrazone combination was compared to other antimicrobial mixtures in an ionic surfactant-containing formula. […] The fungicidal properties of a mixture of benzhydroxamic acid and guanylhydrazone (1+7) was compared to commercial antimicrobials representing different functional classes (Table 3).

The subject of series [2] is Pseudomonas aeruginosa ATCC 9027. Nature of the series: Bactericidal activity in ionic surfactant hand wash / foamy hand soap base formula (HW). The format is cell-based. As to conditions: pH 7.0; for Day 3 Log Reduction / Day 10 Log Reduction: HW, 1 × 10^6 CFU/ml, 37° C.; for CFU/mL after 7 d contact time: hand soap formula. The protocol: This example illustrates the preparation of testing parameters for antimicrobial activity of components of the inventive composition and related compositions for comparison. […] Mold were grown and minimum inhibitory tests performed as previously reported (see e.g., Buckley, H. L. et al. ACS Sustain. Chem. Eng. 5, 4320-4331, 2017). Microbes were grown on Mueller-Hinton agar (MHA, Sigma-Aldrich, St. Louis, Mo.) for 7 days until heavy sporulation was present. Spores from two agar plates were captured in sterile phosphate-buffered saline (PBS) using a sterile swab. Spores were enumerated by serial dilution in Dey-Engley neutralizing broth (DEB; Sigma-Aldrich) and spread plating on MHA. A typical spore stock was determined to contain ˜2×10^7 spores/mL. Bacteria were grown in MH broth for 24 h at 37° C., enumerated by plating, and diluted to the desired concentration as indicated.
To test the various compounds, a foamy hand soap base formula was made with sodium lauryl sulfate (SLS, 2.4% w/w; Sulfochem SLS-PHP [30% active], The Lubrizol Corporation, Wickliffe, Ohio) and cocoamidopropyl betaine (CAPB, 1.2% w/w; Mackam 35 [30% active], Solvay S.A, Brussels, Belgium) in deionized water and sterilized by filtration (0.22 μm, PVDF; VWR, Radnor, Pa.). All test formulas were adjusted to the desired pH using citric acid and/or NaOH. All tubes were inoculated with 250 μL of spore inoculum (described above) to a total volume of 5 mL, for a final spore concentration of ˜1×10^6 spores/mL in each tube. […] About 100 μL of each inoculated foamy hand soap mixture was diluted 1:10 in DEB and 100 μL of this dilution was spread plated on MHA at several time points (e.g. 3 d, 7 d, 13 d, 18 d, and 20 d). Plates were incubated at room temperature for 3-5 days for mold (1-2 days for bacteria) and colonies enumerated.

A further series concerns A. brasiliensis. Kind of series: Minimum inhibitory concentration (MIC) in Mueller-Hinton broth, pH 7.4. The format is cell-based, Aspergillus brasiliensis. As to conditions: for Minimum inhibitory concentration: Table 2. Also noted: Minimum inhibitory concentration: unit not given here. The protocol:
as §1, §2

For the next series, the system named is E. coli. Described as above. The format is cell-based, Escherichia coli. The procedure:
as §1, §2

For a further series, the system named is S. aureus. The series is described as above. The format is cell-based, Staphylococcus aureus. The procedure:
as §1, §2

The next series relates to C. albicans. Described as above. The format is cell-based, Candida albicans. The procedure: as §1, §2
The test system of the next series is P. aeruginosa ATCC 9027. Nature of the series: Tile surface disinfectant test (adapted from ASTM E1153). The format is cell-based, Pseudomonas aeruginosa. The conditions noted are these: 200 ppm; 4×10^6 CFU/mL; sprayed ceramic tile. The procedure: Tile surface disinfectant tests. Surface sanitation tests were adapted from ASTM Test Method E1153. Test bacteria (Escherichia coli ATCC 15597 and Pseudomonas aeruginosa ATCC 9027; American Type Culture Collection, Manassas, Va.) were streaked from frozen stock culture onto Mueller-Hinton agar (MHA; Sigma-Aldrich, St Louis, Mo.) and incubated at 30-37° C. for 2-4 days to produce isolated colonies. Two to three representative colonies were picked and transferred to 10 mL Mueller-Hinton broth (MHB; Sigma) and incubated at 37° C. overnight. Cultures underwent a maximum of 3 passes to fresh broth before being incubated for 48 h at 37° C. to be used as the inoculum. Sterile, glazed 2×2-inch ceramic tiles were inoculated with 100 μL of 48 h culture and allowed to dry for <1 h. Spray sanitizer solutions were prepared by mixing the test compound (5) in deionized, filtered water. Benzalkonium chloride (≥95%, Sigma) or bleach solution was used as a positive control and deionized, filtered water was used as a negative control. Solutions were transferred to 250 mL spray bottles, previously checked for spray volume consistency. For each treatment, tiles were sprayed 3 times. At the designated contact time, 15 mL of Dey-Engley broth (DEB; Sigma) was poured onto the tiles. Tiles were briskly swirled 50 times with DEB to neutralize antimicrobial agents and recover bacteria. This procedure was followed in duplicate for each treatment and contact time. The sanitizer-DEB solutions were then serially diluted in phosphate-buffered saline and plated on MHA. MHA plates were incubated at 37° C. for 18-24 h and colonies enumerated. To determine log reduction, bacteria recovered from treated tiles were compared to bacteria recovered from 2-3 replicate inoculated, untreated tiles.

The nature of series [3]: Dissolution / compatibility in water (observation). The format is physicochemical. As to conditions: sample preparation for extended preservative test. The protocol: Several aryl derivatives of benzhydroxamic acid were also tested.
Setting [4] is: HW, substance alone 0.5%, high loading 10^7 CFU/mL.
Where [5] appears, read: hand soap formula, 0.3 wt % 8 alone, minimum detection limit 5.0 × 10^1.

Take `CCCCc1ccc(C(=O)NO)cc1` [4-n-butylbenzhydroxamic acid 6, 4-n-butylbenzhydroxamic acid]: the Minimum inhibitory concentration with P. aeruginosa was 0.1. In series [1] (HW, 0.4 wt %), the “Log reduction Week 1” value is on record as 4 Log and the “Log reduction Week 2” value is recorded as “none”. Also, in series [2] (substance alone 0.4%), the “Day 3 Log Reduction” value is recorded as 0 Log and the “Day 10 Log Reduction” value came to 0 Log. The same molecule displayed a Minimum inhibitory concentration in the series on A. brasiliensis of 0.008.

Consider `O=C(NO)c1ccccc1` [Benzhydroxamic acid 1, Benzhydroxamic acid], for which the MIC was determined as 0.5 wt % against E. coli; 0.06 wt % with S. aureus; 0.1 wt % in the series on P. aeruginosa; 0.02 wt % in the series with A. brasiliensis; 0.03 wt % in the series on C. albicans. Also, the Minimum inhibitory concentration in the series with P. aeruginosa stood at 0.1; with A. brasiliensis, 0.02. In addition, the “Log reduction Week 1” value in series [1] (HW, 0.5 wt %) is reported as 1 Log. For the same molecule, in series [1] (HW, 0.5 wt %, day 12), the “Log reduction Week 2 (day 12)” value was 4 Log. Moreover, in series [1] (setting [4]), the “Log Reduction Day 5” value was determined as 1 Log. Moreover, the “Log Reduction Day 12” value in series [1] (setting [4]) is 4 Log. Also, the “CFU/mL after 7 d contact time” value in series [1] (hand soap formula, 0.4% 1 alone) was 1 × 10^3 CFU/mL; in series [2] (0.4% 1 alone), 2 × 10^4 CFU/mL.

In the case of `Cc1ccc(C(=O)NO)cc1` [4-methylbenzhydroxamic acid 2, 4-methylbenzhydroxamic acid], the Minimum inhibitory concentration with P. aeruginosa worked out at 0.3. Further, in [1] (HW, 0.2 wt %), the “Log reduction Week 1” value was found to be 4 Log and the “Log reduction Week 2” value was 4 Log. Moreover, in series [2] (substance alone 0.2%), the “Day 3 Log Reduction” value is recorded as 2 Log and the “Day 10 Log Reduction” value came out at 4 Log. Further, the Minimum inhibitory concentration in the series with A. brasiliensis turned out to be 0.02.

As for `CC(=O)NO` [Acetohydroxamic acid], the MIC stood at 0.5 wt % in the series on E. coli; 0.5 wt % with S. aureus; 0.5 wt % in the series with P. aeruginosa; 0.5 wt % in the series on A. brasiliensis; 0.2 wt % in the series on C. albicans.

For the molecule `OCl` [sodium hypochlorite], in the series with P. aeruginosa ATCC 9027, the “reduction at 15 seconds” value is listed as 97.44%, the “reduction at 5 min” value is on record as > 99.998% and the “reduction at 10 min” value is > 99.998%.

In the case of `CCCCCCCC(=O)O` [Caprylic acid], the MIC in the series on E. coli, in the series on S. aureus, with P. aeruginosa, with A. brasiliensis and with C. albicans was 0.5 wt % throughout.

Regarding `CC(C)(C)O` [t-Butanol], the MIC against E. coli is >0.5 wt %; with S. aureus, 5 wt %; with P. aeruginosa, 20 wt %; against A. brasiliensis, >0.5 wt %; in the series on C. albicans, 0.5 wt %.

With `O=C(O)c1ccccc1O` [Salicylic acid], the MIC against E. coli was found to be 0.2 wt %; against S. aureus, 0.1 wt %; with P. aeruginosa it was 0.2 wt %; against A. brasiliensis it was 0.5 wt %; against C. albicans it was 0.5 wt %.

With `O=C(CCCCCCC(=O)NO)NO` [Suberohydroxamic acid], the MIC in the series on E. coli is >0.5 wt %; with S. aureus, 0.5 wt %; in the series on P. aeruginosa, 0.5 wt %; with A. brasiliensis it was 0.5 wt %; against C. albicans, 0.5 wt %.

Regarding `CC(C)(C)ON.Cl` [O-tert-butylhydroxylamine HCl], the MIC with E. coli is listed as 0.5 wt %; with S. aureus, 0.1 wt %; in the series with P. aeruginosa it was 0.2 wt %; in the series on A. brasiliensis, 0.5 wt %; in the series with C. albicans, 0.5 wt %.

With `CCCCCCCCc1ccc(C=NNC(=N)N)cc1` [4-n-octylbenzaldehyde guanylhydrazone 8, 4-n-octylbenzaldehyde guanylhydrazone], the compatibility in water result in series [3] is recorded as “not compatible in water”. Besides, the “CFU/mL after 7 d contact time” value in [1] (hand soap formula, 0.2 wt % 8 alone) is >2 × 10^4 CFU/mL. Further, in series [1] (setting [5]), the “CFU/mL, incubation time 3 d” value is on record as >2.5 × 10^4 CFU/mL; the “CFU/mL, incubation time 7 d” value is >2.5 × 10^4 CFU/mL; the “CFU/mL, incubation time 13 d” value is given as >2.5 × 10^4 CFU/mL; the “CFU/mL, incubation time 18 d” value is reported as >2.5 × 10^4 CFU/mL. In addition, the “CFU/mL, incubation time 20 d” value in series [1] (setting [5]) was >2.5 × 10^4 CFU/mL. Moreover, the “CFU/mL after 7 d contact time” value in series [2] (0.2 wt % 8 alone) was >2 × 10^4 CFU/mL. Besides, in the series with A. brasiliensis, the Minimum inhibitory concentration was 0.002.

Consider `CC(=O)O` [Acetic acid], for which the MIC with E. coli amounted to 0.1 wt %; in the series on S. aureus it was 0.06 wt %; in the series with P. aeruginosa it was 0.06 wt %; against A. brasiliensis, 0.2 wt %; in the series with C. albicans it was 0.2 wt %.

As to `O=C(O)c1ccccc1` [Benzoic acid], the MIC with E. coli, in the series with S. aureus, with P. aeruginosa, in the series on A. brasiliensis and against C. albicans was 0.2 wt % in each case.

Take `CCc1ccc(C(=O)NO)cc1` [4-ethylbenzhydroxamic acid 3, 4-ethylbenzhydroxamic acid]: in the series with P. aeruginosa, the Minimum inhibitory concentration stood at 0.5. In addition, in series [1] (HW, 0.2 wt %), the “Log reduction Week 1” value stood at 4 Log and the “Log reduction Week 2” value is given as 1 Log. For the same molecule, in series [1] (HW, 0.5 wt %), the “Log reduction Week 1” value came to 4 Log and the “Log reduction Week 2” value was determined as 4 Log. In addition, in series [2] (substance alone 0.2%), the “Day 3 Log Reduction” value came to 1 Log and the “Day 10 Log Reduction” value is reported as 0 Log. The molecule further displayed a Minimum inhibitory concentration with A. brasiliensis of 0.06.
